Measured values: PubChem BioAssay AID602236 (The Scripps Research Institute Molecular Screening Center, 2012)
Active and inactive are the calls of the source.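 Rule for the calls: active = IC50 of 10 µM or lower; inactive = IC50 above 10 µM.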

What follows are compounds tested on HEK-293 Gal4-VP16 UAS luciferase reporter, luminescence (assay: GAL4-VP16 reporter repression curves – cell-based, luminescence, high throughput, SRC1 series, counter-screen for SRC1 inhibitor project, dose response (AID 602236);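 note: inhibitor potency where hits lower luciferase light from Gal4-VP16 transactivation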).
CCCS(=O)(=O)Nc1ccc(Nc2c3ccccc3nc3ccccc23)c(OC)c1 was tested, and the IC50 was > 35.9 µM (inactive).
C=CCn1c(O)c(C(C)=NCc2cc(OC)cc(OC)c2)c(=O)[nH]c1=O gave an IC50 of 7.94 µM.
In the case of O=C(CCl)NC(Cc1ccccc1)c1ccccc1 (configuration not stated), the IC50 is reported as 20.8 µM (inactive).
In the case of NS(=O)(=O)c1ccc(Nc2nc(-c3cccnc3)cs2)cc1, the IC50 is reported as > 35.8 µM (inactive).
For N#Cc1c2ccc(O)cc2n2ccccc12, the IC50 was > 35.9 µM (inactive).
With Cc1nc(N2CCC(C(N)=O)CC2)c2c(-c3cccs3)csc2n1 the IC50 was 11.6 µM (inactive).
CCOC(=O)c1cccc2c1-c1ccccc1/C2=N/O gave an IC50 of 8.12 µM.
With COC(=O)c1cccc2c1-c1ccccc1/C2=N/O the IC50 was 4.87 µM.
COc1ccc(OC)c(/C=C2\NC(=O)NC2=O)c1 was tested, and the IC50 was 10.8 µM (inactive).
CS(=O)(=O)Nc1cccc(NC(=O)C2Cc3c(-c4ccco4)ccnc3O2)c1 (configuration not stated) was tested, and the IC50 was 19.3 µM (inactive).
In the case of COc1ccccc1-c1cc2nc(-c3ccccc3)cc(N3CCN(C(=O)c4ccco4)CC3)n2n1, the IC50 is reported as 4.1 µM.
In the case of COc1ccc2ncn(-c3ccccc3)c2c1, the IC50 is reported as 5.95 µM.
In the case of CCn1c(Oc2cccc(Br)c2)nc2c1c(=O)n(C)c(=O)n2C, the IC50 is reported as 25.8 µM (inactive).
O=C(Nc1cccnc1)c1ccc(C(=O)Nc2cccnc2)cc1 was tested, and the IC50 was > 35.9 µM (inactive).
CNc1ncnc(Sc2nc(N)nc3nc[nH]c23)c1[N+](=O)[O-] showed an IC50 of 5.79 µM.
Cc1ccc(OCC(=O)c2cc(C)n(Cc3cccs3)c2C)c([N+](=O)[O-])n1 was tested, and the IC50 was 12.1 µM (inactive).
With Cc1ccc2occ(/C=N/NC(=O)c3ccncc3)c(=O)c2c1 the IC50 was 22.8 µM (inactive).
For O=c1ccc2c(ccc3ncccc32)o1, the IC50 was 18.1 µM (inactive).
With CCCCCOc1ccc(/C=C/c2c([N+](=O)[O-])c(=O)n(C)c(=O)n2C)cc1 the IC50 was 10.1 µM (inactive).
For CC(=O)c1cccc(NC(=O)COc2cc3oc(=O)c(CC(C)O)c(C)c3cc2Cl)c1 (configuration not stated), the IC50 was > 35.9 µM (inactive).
Cc1cc(C)nc(SCc2ccc(C(=O)N/N=C/c3cccc(O)c3O)cc2)n1 was tested, and the IC50 was 5.29 µM.
Compound COc1cc(/C=C2\SC(N)=NC2=O)cc(OC)c1 has an IC50 of 8.33 µM.
In the case of CN(C)C=Nc1c(C(=O)c2ccccc2)sc2nccc(N(C)C)c12, the IC50 is reported as > 35.9 µM (inactive).
With O=C(CCl)N1N=C(c2ccco2)CC1c1cccs1 (configuration not stated) the IC50 was 16 µM (inactive).
With Cn1c(=O)c2[nH]c(COc3ccc(C(C)(C)C)cc3)nc2n(C)c1=O the IC50 was 8.31 µM.
Cc1cccc(C)c1-n1nnnc1C(c1cccs1)N1CCC2(CC1)C(=O)NCN2c1ccccc1 (configuration not stated) was tested, and the IC50 was 14.4 µM (inactive).
With O=C(N/N=C/c1ccccc1O)/C(=C/c1ccccc1)CCO the IC50 was 7.52 µM.
For CC(=O)C1=C(C)NC2=C(C(=O)CC(C)(C)C2)C1C (configuration not stated), the IC50 was 13.1 µM (inactive).
For Nc1ncccc1C(=O)OCC(=O)N1CCN(S(=O)(=O)c2ccc(Cl)cc2)CC1, the IC50 was 12.8 µM (inactive).
With CCN1CCN(C(=S)c2ccc(-c3ccccc3)cc2)CC1 the IC50 was 29.5 µM (inactive).
In the case of c1cc2[nH]snc2c2nc(C3CC3)nc12, the IC50 is reported as 3.5 µM.
Nc1ccn(C2OC(CO)C(O)C2O)c(=O)n1 (configuration not stated) was tested, and the IC50 was 21.7 µM (inactive).
For Cc1ccc(NC(=O)NC2CC(=O)N(c3ccc4c(c3)OCCO4)C2)cc1C (configuration not stated), the IC50 was 20.6 µM (inactive).
For O=C(Nc1ccncc1)c1ccccc1[N+](=O)[O-], the IC50 was 14.2 µM (inactive).
COc1cc2c(cc1OC)C(C)N(C(=O)c1cccc([N+](=O)[O-])c1)CC2 (configuration not stated) was tested, and the IC50 was 8.73 µM.
COc1ccc(-n2cnc(N)c2C(=O)c2cccc([N+](=O)[O-])c2)cc1 was tested, and the IC50 was 15.7 µM (inactive).
For OCCN1CCN(C(=S)c2ccc(-c3ccccc3)cc2)CC1, the IC50 was 30.7 µM (inactive).
With O=C(Nc1cccc2c1CCCC2)c1cc([N+](=O)[O-])ccc1Cl the IC50 was 9.3 µM.
COc1ccc2[nH]c(=O)c(CN(CCN3CCCC3)C(=O)Nc3ccccc3Cl)cc2c1 was tested, and the IC50 was 23.8 µM (inactive).
For c1ccc(-c2csc3ncnc(NCCN4CCOCC4)c23)cc1, the IC50 was 18.7 µM (inactive).
With O=C(CCl)N1N=C(c2cccs2)CC1c1ccco1 (configuration not stated) the IC50 was 20.2 µM (inactive).
For Cc1sc2ncnc(N3CCC(C(=O)Nc4cc(S(C)(=O)=O)ccc4Cl)CC3)c2c1C, the IC50 was 20.7 µM (inactive).
Work on COc1ccc(/C=C2\CC/C(=C\c3ccc(OC)c(OC)c3)C2=O)cc1OC yielded an IC50 of 5.39 µM.
Work on CCCCC(=O)OCC(=O)C1(O)Cc2c(O)c3c(c(O)c2C(OC2CC(NC(=O)C(F)(F)F)C(O)C(C)O2)C1)C(=O)c1c(OC)cccc1C3=O (configuration not stated) yielded an IC50 of 6.82 µM.
In the case of O=C1NCCc2c1[nH]c1ccc([N+](=O)[O-])cc21, the IC50 is reported as 32 µM (inactive).
CCCCC(=O)Nc1cccn2ncnc12 was tested, and the IC50 was > 35.9 µM (inactive).
With CCCc1cc(C(=O)N(C)CC(=O)Nc2ccc(OCC)c(OCC)c2)sc1C the IC50 was > 35.9 µM (inactive).
For O=C(Nc1c(-c2ccccc2)[nH][nH]c1=O)c1cccc(C(F)(F)F)c1, the IC50 was > 35.8 µM (inactive).
For c1nc2sc3c(c2c2nnnn12)CCCC3, the IC50 was 13.3 µM (inactive).
In the case of COc1cc2c(cc1OC)C(NC(=O)C(F)(F)F)CNC2=O (configuration not stated), the IC50 is reported as 10.8 µM (inactive).
With O=C(Nc1cccc(C(F)(F)F)c1)Nc1nnc([C@@H]2C[C@H](O)[C@@H](CO)O2)s1 the IC50 was 7.89 µM.
Cc1cccn2c(=O)c3cc(C(=O)NCCN4CCOCC4)c(=N)n(Cc4cccnc4)c3nc12 was tested, and the IC50 was 13.5 µM (inactive).
With Cc1noc(/C=C/c2ccco2)c1S(=O)(=O)N1CCC(C(=O)Nc2ccc(Cl)cn2)CC1 the IC50 was 16.1 µM (inactive).
With NNC(=O)c1cc2ccccc2cc1O the IC50 was 18.4 µM (inactive).
CN(C)C(=O)c1cccc(COc2ccc(N3C(N)=NC(N)=NC3(C)C)cc2Cl)c1 was tested, and the IC50 was > 35.8 µM (inactive).
O=C1CCC2S/C(=C/Nc3ccc(C(F)(F)F)cc3)C(=O)N12 (configuration not stated) was tested, and the IC50 was > 35.9 µM (inactive).
For Cc1sc2ncnc(N3CCC(C(=O)N(C)CC(=O)Nc4cccc(F)c4)CC3)c2c1C, the IC50 was 15 µM (inactive).
With COc1ccc(Cc2nnc(SCc3ccc([N+](=O)[O-])cc3)o2)cc1 the IC50 was 15.3 µM (inactive).
With Cc1nc2c(-c3ccc(Cl)cc3)c(C)[nH]n2c(=O)c1Cc1ccccc1 the IC50 was 6.96 µM.
With Cc1cccc(C)c1-c1ccc(CN2C(CC(C)C)C(=O)N(Cc3cn(CC4CCCCC4)nn3)CCS2(=O)=O)cc1 (configuration not stated) the IC50 was 16.6 µM (inactive).
O=C(O)CN1C(=O)/C(=C\c2ccccc2OCc2ccc(Cl)cc2Cl)SC1=S was tested, and the IC50 was > 35.9 µM (inactive).
For COc1cccc(NC(=O)CN(C)CC(=O)Nc2ccc(Cl)cc2[N+](=O)[O-])c1, the IC50 was 20.3 µM (inactive).
Cc1ccc(S(=O)(=O)NC(CC(C)C)C(=O)NCC(c2ccco2)N2CCCCC2)cc1 (configuration not stated) was tested, and the IC50 was > 35.9 µM (inactive).
In the case of O=C(CCCc1nc(-c2ccccc2Cl)no1)NC1CCCC1, the IC50 is reported as 13.6 µM (inactive).
In the case of CC(=O)c1cc2c(C)cc(=O)oc2cc1O, the IC50 is reported as 29 µM (inactive).
For CC(C)(C)NC(=O)C1(C)CCC(=O)N1CCCn1ccnc1 (configuration not stated), the IC50 was 12.5 µM (inactive).
O=C(NC1CCCCC1)C(c1cccnc1)N(C(=O)CCl)c1cccc(Cl)c1 (configuration not stated) gave an IC50 of 4.71 µM.
O=C(N/N=C/c1coc2ccc(Cl)cc2c1=O)c1ccc(O)cc1 was tested, and the IC50 was > 35.9 µM (inactive).
C=C1C(=O)[C@@]23C[C@H]4[C@@H]5[C@@]6(C)CCC[C@@]57[C@@H]2[C@@H](O)[C@@H]1C[C@H]3[C@H]7N4C6 was tested, and the IC50 was 8.05 µM.
For O=C(Nc1nc(-c2ccccn2)cs1)c1cccc(S(=O)(=O)N2CCOCC2)c1, the IC50 was 8.59 µM.
In the case of CN(C)c1ccc(Nc2ncnc3ccc(Br)cc23)cc1, the IC50 is reported as 3.2 µM.
With COc1ccccc1/C=C\C(=O)NCC(=O)N/N=C/c1cccc(OC)c1O the IC50 was 15.5 µM (inactive).
